Data reported in patent publication US6919374B1, “Viscosity modulating substance and use thereof” (Oklahoma Medical Research Foundation, priority 1999, dated 2005).
Entries after “also recorded” stand apart in the source; their conditions may differ. Where a SMILES comes first, the peptide text is derived from it.

Columns and labels:
[1] = system: whole blood of sickle cell patients; experiment: Whole blood viscosity by RBC pipette method before and after administration of APM to sickle cell patients; assay type: in vivo; conditions: for blood viscosity after treatment: baseline vs 120 minutes post-treatment, APM 1.5, 3 or 6 mg/kg body weight
Description: Blood samples were obtained from ten patients having homozygous HgBss disease or heterozygous Hgbsc disease before and after a blinded administration of APM at 1.5 (low dose), 3 (medium dose), or 6 (high dose) milligrams per kilogram body weight.
Viscosity determinations using the RBC pipette method of Wright and Jenkins (1970, Blood 36:516) were made on each blinded whole blood sample before and 120 minutes after blinded administration of APM. Each measurement was made in triplicate. Control viscosity measurements using saline and water for each patient and normal whole blood were also made to validate the viscosity measurements.
(§1) To measure viscosity, 1.01 cc of the test fluid, i.e., either water, saline or blood, was drawn into an RBC pipette using a 50 cc syringe attached via rubber tubing to the top of the RBC pipette. Using a constant pressure of 20 mm by maintaining the pressure with visual feedback and hand pressure, the amount of time it took for the test fluid to drip out of the RBC pipette was measured with a stopwatch. Each measurement was made in triplicate. Changes in viscosity from baseline for patient blood samples were recorded and compared to normal controls.

patient blood samples = experiment: Whole blood viscosity after in vitro addition of APM to patient blood samples; assay type: cell-based; conditions: HgBss patients; samples 480 minutes post-treatment; 1 or 2 milligrams/milliliter APM in vitro
Description: as §1
(§2) Samples with high viscosity readings at 480 minutes or 1,440 minutes post-treatment, chosen to represent patients with a validated response to APM who were returning to normal, were divided and treated with an additional 0, 1, or 2 milligrams/milliliter APM in vitro, in an effort to measure whether a second inducible sickling response was possible and if a second response to the in vitro APM addition could be observed. The viscosity of each sample at 480 minutes post-treatment was measured.

[2] = system: sickle cells in HgBss blood; experiment: Metabisulfite slide test for sickling after APM given orally; assay type: in vivo, patients
Description: For comparative purposes, the number of sickle cells relative to the number of normal cells was obtained at 0, 30, 60, 120, 240, 480, and 1440 minutes after administration of APM according to the method given in Example 2.
Blood was drawn before and 120 minutes after treatment with 0, 1.5, 3, or 6 milligrams APM per kilogram body weight in a blinded fashion from the ten patients into heparin tubes, stored in a refrigerator at approximately 10° C. and routinely tested within 36 hours of collection.
Normal blood devoid of abnormal hemoglobin was used as a control. For each heparinized patient blood sample and the normal blood control, experimental samples were prepared containing 0.25 milliliters of normal saline and 0.25 milliliters of blood. […]
To account for natural or non-induced sickling of the experimental samples, a baseline sickling count was obtained for each heparinized patient blood sample and the normal blood control. […] Photomicrographs were taken with a phase contrast microscope at 400 magnification, and the results were obtained from the photomicrographs as the number of sickle cells per 100 cells counted. This number of sickle cells per 100 cells counted was considered the baseline sickling count and was subtracted from the cell counts obtained with the metabisulfite induced samples. […]

[3] = system: sickle cells in HgBss blood; experiment: Sickling after in vitro addition of APM to patient blood; assay type: cell-based, patients
Description: as §2
Using metabisulfite to reduce HbS to the deoxy form (Daland, G. A. and Castle, W. B. 1948. J Lab Clin Med 33:1082-1088; Nelson, D. A. In Todd-Sanford-Davidsohn Clinical Diagnosis by Laboratory Methods, J. B. Henry, ed. (W.B. Saunders Co., Philadelphia, 1979, vol. 1, p. 1020), a baseline sickling test was run on each experimental sample. The sickling inducing agent was prepared fresh daily as follows: 10 milligrams metabisulfite in 1 milliliter isotonic saline. Multiple test slides were prepared for each experimental sample by adding approximately 300 microliters of the metabisulfite inducing agent to 50 microliters of well mixed blood and placing about 4 drops of the experimental sample onto the surface of a glass slide, placing a coverslip over the sample, and sealing the coverslip with a petroleum jelly bead to prevent oxygen from entering the sample. […]

[4] = clinical trial; osteo- and mixed osteo- and rheumatoid arthritis; cited from earlier work
[5] = system: red blood cells containing HbS; conditions: WO 00/18418; cited from earlier work
[6] = with the exception of patients suffering from phenylketonuria; cited from earlier work

COC(=O)[C@H](Cc1ccccc1)NC(=O)[C@@H](N)CC(=O)O [APM, N-L-alpha-aspartyl-L-phenylalanine 1-methyl ester] (H-Asp-Phe-OMe)
blood viscosity after treatment ([1]; HgBss patients): decreased; also recorded: reduces the viscosity | whole blood viscosity ([1]; in vivo): lowers whole blood viscosity | viscosity compared against Pirofsky's change in viscosity vs. hematocrit standard ([1]; patients with sickle cell disease (HgBss)): decreased | viscosity compared against Pirofsky's change in viscosity vs. hematocrit standard ([1]; patients with sickle cell trait (Hbgsc)): increased | blood viscosity after treatment ([1]; sbthal patients): decreased | viscosity of blood samples after in vitro APM addition, compared to the control (patient blood samples): decreased; also recorded: reduces | number of sickle cells [2]: reduces the number of sickle cells | number of sickle cells [3]: reduces the number of sickle cells | pain and inflammation of arthritis [4]: alleviate the pain and inflammation | capacity of red blood cells containing HbS to sickle with hypoxemia [5]: reduction | safety status [6]: generally regarded as safe
